Measurements reported in ChEMBL document CHEMBL5465560, “Selectivity Literature for EUbOPEN Chemogenomic Library” (2024).

Legend:
[1] = target: T1, Mitogen-activated protein kinase kinase kinase 3 (Homo sapiens) (UniProt Q99759); test: Selectivity interaction (KinomeScan (DiscoverX)) EUB0000595a MAP3K3; details: at 10 µM
T1 sequence (whole entry): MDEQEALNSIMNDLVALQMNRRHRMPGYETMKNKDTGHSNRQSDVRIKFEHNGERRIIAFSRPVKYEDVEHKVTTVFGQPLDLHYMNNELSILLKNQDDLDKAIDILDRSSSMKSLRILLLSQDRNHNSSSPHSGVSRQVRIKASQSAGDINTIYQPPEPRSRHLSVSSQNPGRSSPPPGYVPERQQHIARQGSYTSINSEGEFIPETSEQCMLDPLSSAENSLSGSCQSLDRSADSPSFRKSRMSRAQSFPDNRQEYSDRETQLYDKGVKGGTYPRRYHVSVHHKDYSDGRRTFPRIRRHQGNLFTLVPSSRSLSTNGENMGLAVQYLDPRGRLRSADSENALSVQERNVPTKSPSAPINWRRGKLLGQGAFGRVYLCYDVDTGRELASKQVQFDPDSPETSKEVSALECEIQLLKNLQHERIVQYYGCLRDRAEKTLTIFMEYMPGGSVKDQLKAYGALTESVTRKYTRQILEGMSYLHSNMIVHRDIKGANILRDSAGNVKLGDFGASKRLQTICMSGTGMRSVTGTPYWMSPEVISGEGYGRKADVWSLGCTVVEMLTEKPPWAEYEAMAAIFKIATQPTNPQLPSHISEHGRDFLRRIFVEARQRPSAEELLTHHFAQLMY

[2] = target: T2, Serine/threonine-protein kinase STK11 (Homo sapiens) (UniProt Q15831); test: Selectivity interaction (KinomeScan (DiscoverX)) EUB0001079a STK11; details: at 1 µM
T2 sequence (whole entry): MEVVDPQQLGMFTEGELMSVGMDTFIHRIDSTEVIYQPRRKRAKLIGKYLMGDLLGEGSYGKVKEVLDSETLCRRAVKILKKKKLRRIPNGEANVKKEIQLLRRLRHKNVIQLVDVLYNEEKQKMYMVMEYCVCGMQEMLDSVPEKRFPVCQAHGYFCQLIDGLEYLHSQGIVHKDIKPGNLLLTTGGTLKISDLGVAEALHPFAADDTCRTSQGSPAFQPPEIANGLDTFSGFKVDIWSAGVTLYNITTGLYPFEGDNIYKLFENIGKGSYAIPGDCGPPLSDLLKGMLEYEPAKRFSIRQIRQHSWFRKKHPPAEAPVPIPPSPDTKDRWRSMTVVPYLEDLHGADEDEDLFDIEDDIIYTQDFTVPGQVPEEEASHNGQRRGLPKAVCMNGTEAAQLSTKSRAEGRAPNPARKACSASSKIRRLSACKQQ

[3] = target: Myosin light chain kinase 2, skeletal/cardiac muscle (Homo sapiens) (UniProt Q9H1R3); test: Selectivity interaction (KinomeScan (DiscoverX)) EUB0001079a MYLK2; details: at 1 µM
Myosin light chain kinase 2, skeletal/cardiac muscle (Homo sapiens), sequence (Q9H1R3 whole entry): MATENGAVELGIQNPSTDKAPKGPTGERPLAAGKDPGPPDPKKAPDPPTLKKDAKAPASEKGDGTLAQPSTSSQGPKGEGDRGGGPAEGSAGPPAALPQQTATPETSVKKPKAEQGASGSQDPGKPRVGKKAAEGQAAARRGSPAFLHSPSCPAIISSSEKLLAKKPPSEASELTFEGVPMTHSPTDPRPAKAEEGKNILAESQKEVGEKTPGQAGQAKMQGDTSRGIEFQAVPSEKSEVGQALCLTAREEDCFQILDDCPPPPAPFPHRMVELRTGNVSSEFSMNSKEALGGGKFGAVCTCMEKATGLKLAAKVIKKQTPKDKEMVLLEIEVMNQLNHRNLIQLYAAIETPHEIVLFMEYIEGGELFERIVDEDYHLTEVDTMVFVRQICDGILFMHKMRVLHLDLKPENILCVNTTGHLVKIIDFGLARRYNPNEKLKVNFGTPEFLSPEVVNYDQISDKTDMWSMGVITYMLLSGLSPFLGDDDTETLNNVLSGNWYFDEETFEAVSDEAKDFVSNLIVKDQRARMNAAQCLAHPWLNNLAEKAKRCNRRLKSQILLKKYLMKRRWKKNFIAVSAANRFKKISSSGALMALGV

[4] = target: Tyrosine-protein kinase ABL2 (Homo sapiens, UniProt P42684); test: Selectivity interaction (Kinase panel (Z-LYTE Assay)) EUB0001632a ABL2; details: at 10 µM
Tyrosine-protein kinase ABL2, sequence (P42684 whole entry): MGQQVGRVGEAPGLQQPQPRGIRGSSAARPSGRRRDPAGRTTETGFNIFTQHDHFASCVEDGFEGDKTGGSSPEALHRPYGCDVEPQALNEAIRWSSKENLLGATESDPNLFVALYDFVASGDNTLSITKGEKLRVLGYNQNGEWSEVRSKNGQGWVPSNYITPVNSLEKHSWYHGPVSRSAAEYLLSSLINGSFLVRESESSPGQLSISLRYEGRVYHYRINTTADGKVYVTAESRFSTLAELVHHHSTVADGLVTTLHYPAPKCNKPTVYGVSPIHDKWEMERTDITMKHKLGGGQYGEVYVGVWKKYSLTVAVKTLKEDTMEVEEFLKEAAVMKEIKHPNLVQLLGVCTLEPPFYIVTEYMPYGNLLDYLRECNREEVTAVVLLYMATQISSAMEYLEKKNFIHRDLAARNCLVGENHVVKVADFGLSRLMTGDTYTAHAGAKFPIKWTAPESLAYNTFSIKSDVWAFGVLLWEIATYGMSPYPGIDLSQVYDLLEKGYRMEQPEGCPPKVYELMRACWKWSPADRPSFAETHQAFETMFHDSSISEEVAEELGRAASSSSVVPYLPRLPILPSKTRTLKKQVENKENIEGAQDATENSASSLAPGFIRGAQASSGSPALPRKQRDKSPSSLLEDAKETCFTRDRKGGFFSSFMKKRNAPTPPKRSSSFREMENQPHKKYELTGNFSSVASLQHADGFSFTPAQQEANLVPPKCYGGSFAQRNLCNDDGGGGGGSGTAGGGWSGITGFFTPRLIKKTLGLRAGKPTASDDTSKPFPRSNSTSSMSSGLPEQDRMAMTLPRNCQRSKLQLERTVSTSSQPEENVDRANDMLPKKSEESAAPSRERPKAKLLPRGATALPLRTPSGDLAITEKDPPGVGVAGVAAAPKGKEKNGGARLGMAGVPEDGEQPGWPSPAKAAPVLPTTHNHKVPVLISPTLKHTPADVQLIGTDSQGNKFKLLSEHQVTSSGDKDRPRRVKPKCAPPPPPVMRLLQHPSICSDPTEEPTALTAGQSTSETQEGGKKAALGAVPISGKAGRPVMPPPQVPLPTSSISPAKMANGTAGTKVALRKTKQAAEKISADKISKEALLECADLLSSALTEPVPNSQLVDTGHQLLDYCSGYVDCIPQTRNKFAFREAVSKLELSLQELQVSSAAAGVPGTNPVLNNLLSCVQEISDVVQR

[5] = target: T3, Dual specificity protein kinase TTK (Homo sapiens) (UniProt P33981); test: Selectivity interaction (Kinase panel (literature)) EUB0001199aCl TTK; details: at 1 µM
T3 sequence (whole entry): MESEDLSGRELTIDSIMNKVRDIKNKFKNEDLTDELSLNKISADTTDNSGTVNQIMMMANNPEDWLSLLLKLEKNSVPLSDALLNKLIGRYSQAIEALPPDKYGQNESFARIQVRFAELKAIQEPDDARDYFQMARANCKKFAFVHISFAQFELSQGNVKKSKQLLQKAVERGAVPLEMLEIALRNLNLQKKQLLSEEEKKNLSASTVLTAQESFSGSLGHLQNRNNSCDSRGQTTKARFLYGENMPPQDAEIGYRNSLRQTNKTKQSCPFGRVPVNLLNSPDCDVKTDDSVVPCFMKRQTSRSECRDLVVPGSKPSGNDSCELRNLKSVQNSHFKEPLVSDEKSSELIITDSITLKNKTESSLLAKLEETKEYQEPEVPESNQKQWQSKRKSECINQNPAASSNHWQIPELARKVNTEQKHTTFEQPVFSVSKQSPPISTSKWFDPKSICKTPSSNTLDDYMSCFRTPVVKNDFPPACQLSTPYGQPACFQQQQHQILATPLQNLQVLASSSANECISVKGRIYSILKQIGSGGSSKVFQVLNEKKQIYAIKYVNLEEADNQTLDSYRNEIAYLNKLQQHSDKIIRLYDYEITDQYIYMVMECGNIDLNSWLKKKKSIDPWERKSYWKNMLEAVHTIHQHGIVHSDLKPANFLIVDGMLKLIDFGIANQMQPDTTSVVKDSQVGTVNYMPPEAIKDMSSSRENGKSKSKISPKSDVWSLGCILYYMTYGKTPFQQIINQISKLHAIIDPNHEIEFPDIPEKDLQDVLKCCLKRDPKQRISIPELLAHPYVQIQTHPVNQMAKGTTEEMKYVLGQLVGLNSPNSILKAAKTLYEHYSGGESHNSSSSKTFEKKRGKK

[6] = target: Tyrosine-protein kinase JAK1 (Homo sapiens, UniProt P23458); test: Selectivity interaction (ActivX KiNativ screen (kinase selectivity in THP-1 cell lysates)) EUB0000639a JAK1; assay type: subcellular; details: lysate, at 0.01 µM
Tyrosine-protein kinase JAK1, sequence (P23458 whole entry): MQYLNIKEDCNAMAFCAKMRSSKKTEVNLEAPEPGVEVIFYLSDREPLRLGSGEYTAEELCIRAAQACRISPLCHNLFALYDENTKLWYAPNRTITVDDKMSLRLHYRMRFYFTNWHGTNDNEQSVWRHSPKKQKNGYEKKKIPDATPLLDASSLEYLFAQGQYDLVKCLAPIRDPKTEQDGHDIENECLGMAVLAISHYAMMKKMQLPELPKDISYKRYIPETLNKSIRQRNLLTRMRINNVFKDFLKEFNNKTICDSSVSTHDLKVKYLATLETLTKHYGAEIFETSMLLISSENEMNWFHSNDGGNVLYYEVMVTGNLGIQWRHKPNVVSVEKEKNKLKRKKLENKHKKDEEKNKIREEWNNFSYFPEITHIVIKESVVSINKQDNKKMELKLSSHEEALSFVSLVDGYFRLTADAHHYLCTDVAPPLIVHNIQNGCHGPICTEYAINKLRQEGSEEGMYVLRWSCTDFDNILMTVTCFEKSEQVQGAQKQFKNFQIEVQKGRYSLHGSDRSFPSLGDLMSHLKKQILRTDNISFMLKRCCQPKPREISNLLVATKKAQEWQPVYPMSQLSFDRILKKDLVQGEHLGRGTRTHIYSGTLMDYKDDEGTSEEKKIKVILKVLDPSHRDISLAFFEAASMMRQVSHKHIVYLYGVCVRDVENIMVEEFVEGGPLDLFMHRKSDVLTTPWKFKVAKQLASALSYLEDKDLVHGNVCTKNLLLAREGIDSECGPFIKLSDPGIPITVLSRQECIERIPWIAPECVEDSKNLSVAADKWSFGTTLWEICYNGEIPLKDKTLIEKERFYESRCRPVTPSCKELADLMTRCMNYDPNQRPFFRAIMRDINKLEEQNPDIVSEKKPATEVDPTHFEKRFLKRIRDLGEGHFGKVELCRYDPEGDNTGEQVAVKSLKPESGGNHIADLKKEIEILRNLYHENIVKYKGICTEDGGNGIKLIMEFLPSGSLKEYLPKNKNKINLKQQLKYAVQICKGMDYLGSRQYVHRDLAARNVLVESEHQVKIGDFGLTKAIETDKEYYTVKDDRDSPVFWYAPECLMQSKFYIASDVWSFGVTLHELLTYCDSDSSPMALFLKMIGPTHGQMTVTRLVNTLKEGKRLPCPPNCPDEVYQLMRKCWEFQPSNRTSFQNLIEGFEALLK

[7] = target: T4, Serine/threonine-protein kinase BRSK2 (Homo sapiens) (UniProt Q8IWQ3); test: Selectivity interaction (Ambit KINOMEscan and KiNATiv profiling in Jurkat cells) EUB0000090b BRSK2; assay type: cell-based; details: at 1 µM
T4 sequence (whole entry): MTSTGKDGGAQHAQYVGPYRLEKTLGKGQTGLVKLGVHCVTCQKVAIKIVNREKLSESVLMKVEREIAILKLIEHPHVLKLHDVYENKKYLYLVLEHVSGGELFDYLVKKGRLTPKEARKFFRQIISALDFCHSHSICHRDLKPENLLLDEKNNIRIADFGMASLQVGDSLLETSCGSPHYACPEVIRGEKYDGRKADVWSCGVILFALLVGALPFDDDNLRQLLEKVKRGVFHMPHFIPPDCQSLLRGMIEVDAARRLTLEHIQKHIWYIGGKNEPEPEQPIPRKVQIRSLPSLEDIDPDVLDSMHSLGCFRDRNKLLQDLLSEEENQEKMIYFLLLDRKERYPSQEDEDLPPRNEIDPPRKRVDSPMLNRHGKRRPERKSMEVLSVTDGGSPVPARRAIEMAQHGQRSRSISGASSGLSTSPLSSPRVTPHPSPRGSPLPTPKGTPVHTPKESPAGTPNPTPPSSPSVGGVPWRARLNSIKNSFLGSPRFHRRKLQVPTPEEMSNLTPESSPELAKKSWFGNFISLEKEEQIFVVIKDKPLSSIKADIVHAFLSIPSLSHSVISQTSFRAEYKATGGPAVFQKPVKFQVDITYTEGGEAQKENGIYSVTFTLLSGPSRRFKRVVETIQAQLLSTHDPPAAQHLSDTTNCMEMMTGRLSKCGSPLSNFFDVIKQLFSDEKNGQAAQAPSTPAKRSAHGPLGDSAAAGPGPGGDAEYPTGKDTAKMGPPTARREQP

**Q.** `COCC(=O)NC/C=C/c1ccc2ncnc(Nc3ccc(Oc4ccc(C)nc4)c(C)c3)c2c1` [CP-724714] was tested. Which % of control [1] did it give?
**A.** 100%

**Q.** How did the % of control [2] turn out when `Nc1cnc(N2CCc3cc(S(=O)(=O)Nc4c(F)cc(Cl)cc4F)cc(N4CCCC4=O)c32)nc1` [TP-020n] was run?
**A.** 100%

**Q.** And the % of control [3]?
**A.** 87%

**Q.** `Cn1cc(-n2cnc3c(NCc4nc5cc(Cl)c(Cl)cc5[nH]4)nc(N4CCOCC4)nc32)cn1` was tested. Which % of control [4] did it give?
**A.** 6.33%

**Q.** How did the % of inhibition [5] turn out when `CN1Cc2nccc(-c3cn(C)nc3-c3ccc(F)cc3)c2C1=O` was run?
**A.** -3%

**Q.** How did the % of inhibition [6] turn out when `CC[C@@H]1[C@H](F)C(=O)N[C@@H]1COc1nccc2cc(C(N)=O)c(OC)cc12` [ZIMLOVISERTIB] was run?
**A.** -1.9%

**Q.** Which % of control [7] does the source give for `CN(C)C/C=C/C(=O)Nc1ccc(C(=O)N2CCCC(Nc3ncc(Cl)c(-c4c[nH]c5ccccc45)n3)C2)cc1` (configuration not stated) here?
**A.** 100%
